Assay results as given in patent publication US10195156B2, “Compounds and compositions for intracellular delivery of agents” (ModernaTX, Inc., priority 2015, dated 2019).
“Also recorded” adds a separate entry of the source. Values belong to the compound of their own block, whether it stands above or below them.

How the values were obtained:
hEPO mRNA expression = assay: Expression of hEPO in CD-1 mice; assay type: in vivo; conditions: for Lipid/MC3 hEPO CD-1 (mice): hEPO expression relative to MC3, CD-1 mice
Description: FIG. 12 is a set of graphs illustrating hEPO expression levels in CD-1 mice dosed with compounds of the disclosure, compared to MC3. PBS is used as control. […] In graphs A-C numbers 1-14 refer to compositions containing the following: 1: Compound 73, 2: Compound 80, 3: Compound 70; 4: Compound 81; 5: Compound 69; 6: Compound 82; 7: Compound 83; 8: Compound 62; 9: Compound 84; 10: Compound 85; 11: Compound 86; 12: Compound 87; 13: MC3; 14: PBS.
FIG. 13 is a graph showing hEPO levels (pg/mL) in CD-1 mice up to ˜25 h after administration of a nanoparticle composition containing compounds of the disclosure, compared to a composition containing MC3. Numbers 1-13 refer to compositions containing the following: 1: Compound 73, 2: Compound 80, 3: Compound 70; 4: Compound 81; 5: Compound 69; 6: Compound 82; 7: Compound 83; 8: Compound 62; 9: Compound 84; 10: Compound 85; 11: Compound 86; 12: Compound 87; 13: MC3. […]

[1] = tested on: modified luciferase expression; assay: Expression of Luc in different organs (liver, lung, spleen, femur) 6 hours after intravenous administration; assay type: in vivo; conditions: i.v., 0.5 mpk
Experimental: The efficacy of the nanoparticle compositions presented in Tables 1, 1a, 17-1, 19-1, 20-1 and 21-1 was further evaluated by measuring the expression of modified luciferase in the liver, lung, spleen, and femur upon administration of a given composition. Formulations were administered intravenously to mice (n=3) at a dosage of 0.5 mpk and bioluminescence measured after 6 hours. The standard MC3 formulation and a PBS control were also tested.

[2] = Concentration of RNA in nanoparticle composition (ultraviolet-visible spectroscopy); assay type: physicochemical; conditions: Table 5, hEPO mRNA
[3] = tested on: GFP expression in liver cells; assay: Mouse liver immunohistochemistry (IHC) with GFP mRNA; assay type: in vivo; conditions: FIG. 11, i.v., 0.5 mpk, 6 h (MC3, CD-1) or 8 h (Compound 4, LDLR knockout)
Experimental: FIG. 11 is a pair of images comparing the results of a mouse liver immunohistochemistry (IHC) using mRNA expressing green fluorescent protein (GFP) after administration of nanoparticle compositions containing Compound 4 and MC3.
FIG. 16 is a graph showing GFP levels in the livers of LDLR knockout mice at 30 min to 24 h after intravenous administration of an eGFP RNA in a lipid composition containing Compound 4. The liver GFP levels were determined via IHC. The square markers represent the number of GFP positive cells following administration of a dose of 0.1 mpk of the composition. The circular markers represent the number of GFP positive cells following administration of a dose of 0.5 mpk of the composition.

[4] = tested on: modified luciferase (Luc) expression; assay: Expression upon intramuscular administration of Luc mRNA and H10 mRNA formulations; assay type: in vivo; conditions: 6 hours after intramuscular administration
Experimental: Sample formulations including both modified luciferase (Luc) mRNA and H10 mRNA were prepared and administered intramuscularly at day 1 and day 21 and the resulting expression and immunogenicity were evaluated simultaneously. Formulations including compounds according to formula (20-I) were prepared and administered at doses of 0.001 and 0.01 mpk (e.g., doses of 0.0005 mpk of a formulation including Luc mRNA and a formulation including H10 mRNA or doses of 0.005 mpk of a formulation including Luc mRNA and a formulation including H10 mRNA). As shown in Table 20-4, the total flux was higher upon administration of the second dose for each composition and at each dose level. Total flux was higher for the higher dose level.

Luc expression [5] = assay: Luc expression in CD-1 mice (AUC relative to MC3); assay type: in vivo; conditions: Table 7c
Experimental: FIG. 15 is a graph summarizing luciferase expression levels at 6 h after administration of nanoparticle compositions containing compounds of the disclosure to CD-1 mice at a dose of 0.5 mpk. Total light flux values were acquired via body luminescent imaging (BLI) 6 h after administration. In this Figure, the numbers 1-7 and 10 refer to the compositions containing Compounds 4-10 and MC3 respectively.
In contrast, hEPO expression in rats induced by administration of a nanoparticle composition including a compound according to one of formulae (I), (Ia1)-(Ia6), (Ib), (II), (IIa), (III), and (IIIa) was substantially […] than that measured for MC3. […] Table 7c and 7d show additional protein expressions and clearance data from compositions with various compounds disclosed herein as compared to with MC3.

Luc expression [6] = assay: ApoE dependence of luciferase expression (ApoE knockout vs. wild-type mice); assay type: in vivo; conditions: 0.5 mpk, 6 h
Description: FIG. 17 is a pair of graphs showing the ApoE dependence of luciferase (“Luc”) expression following administration of a composition containing Luc mRNA and Compound 4 to mice at a dose 0.5 mpk. The expression following administration of a composition containing Luc mRNA and MC3 is presented for comparison. […] The % change in Luc expression in livers of ApoE knockout vs. wild-type mice (i.e., (WT mean expression-KO mean expression)/WT mean expression]*100%) was 91.9% for Compound 4 and 97.5% for MC3. […] The % change in expression in spleens of ApoE knockout vs. wild-type mice was 4.34% for Compound 4 and 72.2% for MC3. Numbers 1-4 refer to the following: 1: Composition containing Compound 4, administered to ApoE knockout mice; 2: Composition containing Compound 4, administered to wild-type mice; 3: Composition containing MC3, administered to ApoE knockout mice; 4: Composition containing MC3, administered to wild-type mice.

- Conc. ([2]; 40:20:38.5:1.5 Lipid:DOPE:Chol:PEG-DMG): 320.14 µg/mL
Structure (SMILES): CCCCCCCCCCCCN(CCCCCCCCCCCC)CCN(CCCCCCCCCCCC)CCN1CCN(CCN(CCCCCCCCCCCC)CCCCCC(=O)OCCCCC)CC1 [Compound 12, Pentyl 6-((2-(4-(2-((2-(didodecylamino)ethyl)(dodecyl)amino)ethyl)piperazin-1-yl)ethyl)(dodecyl)amino)hexanoate]
- hEPO expression in mice compared with MC3 (in words) (hEPO mRNA expression; Table 7a, mice): substantially higher
- Lipid/MC3 hEPO CD-1 (mice) (hEPO mRNA expression): 2.3
- Total Flux Liver ([1]; Table 3, mice, liver): 1.05E+09
- Total Flux Lung ([1]; Table 3, mice): 6.76E+06
- Total Flux Spleen ([1]; Table 3, mice): 1.11E+07

- Conc. ([2]; 50:10:38.5:1.5 Lipid:DSPC:Chol:PEG-DMG): 470.45 µg/mL
Structure (SMILES): CCCCCC=CCC=CCCCCCCCCC(CCCCCCCCC=CCC=CCCCCC)OC(=O)CCCN(C)C (stereo not drawn) [MC3, heptatriaconta-6,9,28,31-tetraen-19-yl 4-(dimethylamino)butanoate, reference compound]
- GFP protein expression in liver cell types (in words) [3]: observed in both hepatocytes and Kupffer cells
- Total flux (p/s) 0.001 mpk Dose 1 ([4]; 0.001 mpk, Dose 1): 1.23E+06 p/s
- Total flux (p/s) 0.001 mpk Dose 2 ([4]; 0.001 mpk, Dose 2): 1.09E+06 p/s
- Total flux (p/s) 0.01 mpk Dose 1 ([4]; 0.01 mpk, Dose 1): 1.79E+07 p/s
- Total flux (p/s) 0.01 mpk Dose 2 ([4]; 0.01 mpk, Dose 2): 3.13E+07 p/s
- Lipid/MC3 hEPO CD-1 (mice) (hEPO mRNA expression): 1
- Total Flux Femur ([1]; Table 3, mice): 3.08E+06
- Total Flux Liver ([1]; Table 3, mice, liver): 2.31E+09
- Total Flux Lung ([1]; Table 3, mice): 8.61E+06
- Total Flux Spleen ([1]; Table 3, mice): 1.95E+07
- Total Flux Femur ([1]; Table 17-3, mice): 6.03E+06
- Total Flux Liver ([1]; Table 17-3, mice, liver): 2.75E+09
- Total Flux Lung ([1]; Table 17-3, mice): 7.25E+06
- Total Flux Spleen ([1]; Table 17-3, mice): 2.62E+07
- Total Flux Liver ([1]; Table 19-3, mice, liver): 2.39E+09
- Total Flux Lung ([1]; Table 19-3, mice): 5.83E+06
- Total Flux Spleen ([1]; Table 19-3, mice): 2.45E+07
- Total Flux Femur ([1]; Table 20-3, mice): 2.60E+06
- Total Flux Liver ([1]; Table 20-3, mice, liver): 2.48E+09
- Total Flux Lung ([1]; Table 20-3, mice): 1.28E+07
- Total Flux Spleen ([1]; Table 20-3, mice): 2.85E+07
- Total Flux Liver ([1]; Table 21-3, mice, liver): 3.05E+09
- Total Flux Lung ([1]; Table 21-3, mice): 6.60E+06
- Total Flux Spleen ([1]; Table 21-3, mice): 4.73E+07
- total flux in organs, rank or organ comparison (in words) ([1]; mice, each organ or overall, 0.5 mg/kg): highest total flux; also recorded: highest expression in each organ
- total flux in the liver, rank within the named table (in words) ([1]; mice, liver): highest
- AUC (p/s*h) (Luc expression [5]): 1.42E+11 p/s*h
- % change in Luc expression in livers of ApoE knockout vs. wild-type mice (Luc expression [6]; FIG. 17 Graph A, liver): 97.5%
- % change in expression in spleens of ApoE knockout vs. wild-type mice (Luc expression [6]; FIG. 17 Graph B, spleen): 72.2%
